# Experimental data reported in paper PMC7686313, “Phase 1 study of mTORC1/2 inhibitor sapanisertib (TAK-228) in advanced solid tumours, with an expansion phase in renal, endometrial or bladder cancer” (British Journal of Cancer, 2020).
# Assay: Safety (adverse events, NCI CTCAE v4.0), expansion phase
# Settings: expansion QD 5 mg
# From the text: Based on data collected during dose-escalation, the expansion phase evaluated the safety and efficacy of QD and QW sapanisertib in patients with RCC, endometrial or bladder cancer. Patients could continue receiving sapanisertib for ≤1 year (or beyond, if the investigator and sponsor agreed) in the absence of disease progression or unacceptable toxicity.
# Patients who received ≥1 dose of sapanisertib were included in the safety population. The response-evaluable population included patients who received ≥1 dose of sapanisertib, had measurable disease at baseline, and had ≥1 postbaseline assessment. […] Adverse events (AEs) were assessed using the National Cancer Institute Common Terminology Criteria for Adverse Events, v4.0. Patients were provided with a home blood-glucose meter to monitor their fasting predose blood-glucose measurements to assess hyperglycaemia as an on-target AE and PD marker.
compound,measurement,value
CC(C)n1nc(-c2ccc3oc(N)nc3c2)c2c(N)ncnc21 [Sapanisertib],"Abdominal pain, all-grade AE of any cause",7 (18) n (%)
same,"Abdominal pain, grade ≥3 AE of any cause",3 (8) n (%)
same,"Acute kidney injury, grade ≥3 AE of any cause",2 (5) n (%)
same,"Acute kidney injury, treatment-related AE",2 (5) n (%)
same,"Anaemia, all-grade AE of any cause",6 (15) n (%)
same,"Anaemia, grade ≥3 AE of any cause",1 (3) n (%)
same,"Anaemia, treatment-related AE",2 (5) n (%)
same,Any AE,39 (100) n (%)
same,Any AE resulting in dose modification/interruption,27 (69) n (%)
same,Any AE resulting in treatment discontinuation,7 (18) n (%)
same,Any SAE,19 (49) n (%)
same,Any grade ≥3 AE,30 (77) n (%)
same,Any treatment-related AE,39 (100) n (%)
same,Any treatment-related SAE,5 (13) n (%)
same,Any treatment-related grade ≥3 AE,18 (46) n (%)
same,"Arthralgia, all-grade AE of any cause",2 (5) n (%)
same,"Asthenia, grade ≥3 AE of any cause",1 (3) n (%)
same,"Asthenia, treatment-related AE",7 (18) n (%)
same,"Asthenia, treatment-related grade ≥3 AE",1 (3) n (%)
same,"Blood creatinine increased, all-grade AE of any cause",5 (13) n (%)
same,"Blood creatinine increased, treatment-related AE",3 (8) n (%)
same,"Constipation, all-grade AE of any cause",10 (26) n (%)
same,"Constipation, grade ≥3 AE of any cause",0 (0) n (%)
same,"Cough, all-grade AE of any cause",9 (23) n (%)
same,"Decreased appetite, all-grade AE of any cause",20 (51) n (%)
same,"Decreased appetite, treatment-related AE",17 (44) n (%)
same,"Dehydration, all-grade AE of any cause",6 (15) n (%)
same,"Dehydration, grade ≥3 AE of any cause",0 (0) n (%)
same,"Dehydration, treatment-related AE",2 (5) n (%)
same,"Dehydration, treatment-related grade ≥3 AE",0 (0) n (%)
same,"Depression, all-grade AE of any cause",1 (3) n (%)
same,"Diarrhoea, all-grade AE of any cause",20 (51) n (%)
same,"Diarrhoea, grade ≥3 AE of any cause",2 (5) n (%)
same,"Diarrhoea, treatment-related AE",17 (44) n (%)
same,"Diarrhoea, treatment-related grade ≥3 AE",2 (5) n (%)
same,"Dizziness, all-grade AE of any cause",9 (23) n (%)
same,"Dry mouth, all-grade AE of any cause",5 (13) n (%)
same,"Dry mouth, treatment-related AE",3 (8) n (%)
same,"Dysgeusia, all-grade AE of any cause",10 (26) n (%)
same,"Dysgeusia, treatment-related AE",10 (26) n (%)
same,"Dyspepsia, treatment-related AE",1 (3) n (%)
same,"Dyspnoea, grade ≥3 AE of any cause",2 (5) n (%)
same,"Fatigue, all-grade AE of any cause",25 (64) n (%)
same,"Fatigue, grade ≥3 AE of any cause",5 (13) n (%)
same,"Fatigue, treatment-related AE",22 (56) n (%)
same,"Fatigue, treatment-related grade ≥3 AE",4 (10) n (%)
same,"Haematuria, grade ≥3 AE of any cause",2 (5) n (%)
same,"Headache, all-grade AE of any cause",4 (10) n (%)
same,"Headache, treatment-related AE",0 (0) n (%)
same,"Hypercholesterolemia, treatment-related AE",0 (0) n (%)
same,"Hyperglycaemia, all-grade AE of any cause",18 (46) n (%)
same,"Hyperglycaemia, grade ≥3 AE of any cause",5 (13) n (%)
same,"Hyperglycaemia, treatment-related AE",17 (44) n (%)
same,"Hyperglycaemia, treatment-related grade ≥3 AE",5 (13) n (%)
same,"Hyperkalaemia, grade ≥3 AE of any cause",2 (5) n (%)
same,"Hypertension, grade ≥3 AE of any cause",1 (3) n (%)
same,"Hypokalaemia, grade ≥3 AE of any cause",1 (3) n (%)
same,"Hyponatremia, grade ≥3 AE of any cause",1 (3) n (%)
same,"Hypophosphatemia, grade ≥3 AE of any cause",4 (10) n (%)
same,"Hypophosphatemia, treatment-related AE",3 (8) n (%)
same,"Hypophosphatemia, treatment-related grade ≥3 AE",3 (8) n (%)
same,"Lymphopenia, grade ≥3 AE of any cause",1 (3) n (%)
same,"Lymphopenia, treatment-related grade ≥3 AE",0 (0) n (%)
same,"Musculoskeletal chest pain, grade ≥3 AE of any cause",1 (3) n (%)
same,"Nausea, all-grade AE of any cause",21 (54) n (%)
same,"Nausea, grade ≥3 AE of any cause",1 (3) n (%)
same,"Nausea, treatment-related AE",20 (51) n (%)
same,"Nausea, treatment-related grade ≥3 AE",1 (3) n (%)
same,"Oedema peripheral, all-grade AE of any cause",9 (23) n (%)
same,On-study deaths,0 n (%)
same,"Oropharyngeal pain, all-grade AE of any cause",3 (8) n (%)
same,"Pain in extremity, grade ≥3 AE of any cause",0 (0) n (%)
same,"Pneumonia, grade ≥3 AE of any cause",2 (5) n (%)
same,"Pruritus generalised, all-grade AE of any cause",12 (31) n (%)
same,"Pruritus generalised, treatment-related AE",11 (28) n (%)
same,"Pruritus generalised, treatment-related grade ≥3 AE",1 (3) n (%)
same,"Pruritus, all-grade AE of any cause",10 (26) n (%)
same,"Pruritus, treatment-related AE",7 (18) n (%)
same,"Pyrexia, all-grade AE of any cause",8 (21) n (%)
same,"Rash maculo-papular, all-grade AE of any cause",17 (44) n (%)
same,"Rash maculo-papular, grade ≥3 AE of any cause",3 (8) n (%)
same,"Rash maculo-papular, treatment-related AE",14 (36) n (%)
same,"Rash maculo-papular, treatment-related grade ≥3 AE",3 (8) n (%)
same,"Rash, treatment-related AE",1 (3) n (%)
same,"Rash, treatment-related grade ≥3 AE",0 (0) n (%)
same,"Sepsis, grade ≥3 AE of any cause",1 (3) n (%)
same,"Stomatitis (includes oropharyngeal pain and mucosal inflammation), treatment-related AE",19 (49) n (%)
same,"Stomatitis, all-grade AE of any cause",19 (49) n (%)
same,"Stomatitis, grade ≥3 AE of any cause",3 (8) n (%)
same,"Stomatitis, treatment-related grade ≥3 AE",3 (8) n (%)
same,"Thrombocytopenia, grade ≥3 AE of any cause",2 (5) n (%)
same,"Thrombocytopenia, treatment-related grade ≥3 AE",2 (5) n (%)
same,"Transitional cell carcinoma, grade ≥3 AE of any cause",0 (0) n (%)
same,"Urinary tract infection, all-grade AE of any cause",6 (15) n (%)
same,"Vomiting, all-grade AE of any cause",13 (33) n (%)
same,"Vomiting, grade ≥3 AE of any cause",1 (3) n (%)
same,"Vomiting, treatment-related AE",12 (31) n (%)
same,"Weight decreased, all-grade AE of any cause",6 (15) n (%)
same,"Weight decreased, treatment-related AE",5 (13) n (%)
